Results as given in ChEMBL document CHEMBL6109159, “Discovery of a Potent and Selective Protein Arginine Methyltransferase 5 (PRMT5) PROTAC Degrader” (J Med Chem, 2025).
The source made the active and inactive calls. The rule behind the calls is not given here.

Legend:
MCF-10A = assay: PROTAC activity at MEP50/VHL in human MCF-10A cells assessed as degradation at 0.5 to 5 uM after 3 days by Western blot analysis; type: cell-based; settings: dose 0.5-5 µM, time 3.0 day
[1] = PROTAC activity at PRMT5/VHL in human PNT2 cells assessed as degradation at 0.5 to 5 uM after 3 days by Western blot analysis; settings: dose 0.5-5 µM, time 3.0 day
[2] = biological target: T1, von Hippel-Lindau disease tumor suppressor/Methylosome protein WDR77 (Homo sapiens, UniProt Q9BQA1+P40337); assay: PROTAC activity at MEP50/VHL in human MDA-MB-231 cells assessed as degradation at 0.5 uM after 3 days by Western blot analysis; type: cell-based; settings: time 3.0 day
[3] = biological target: T2, von Hippel-Lindau disease tumor suppressor/Protein arginine N-methyltransferase 5 (Homo sapiens, UniProt O14744+P40337); assay: PROTAC activity at PRMT5/VHL in human MDA-MB-453 cells assessed as degradation at 5 uM after 3 days by Western blot analysis; type: cell-based; settings: time 3.0 day
[4] = biological target: T1, von Hippel-Lindau disease tumor suppressor/Methylosome protein WDR77; assay: PROTAC activity at MEP50/VHL in human MDA-MB-468 cells assessed as downregulation of MEP50 at 2 uM of compound after 24 hrs by mass spectrometry (MS)-based global proteomic study; type: cell-based
HCC70 = assay: Growth inhibition of human HCC70 cells assessed as cell viability measured after 5 days by CCK-8 assay; type: functional, cell-based; settings: time 5.0 day
[5] = biological target: T1, von Hippel-Lindau disease tumor suppressor/Methylosome protein WDR77; assay: PROTAC activity at MEP50/VHL in human MCF7 cells assessed as degradation at 0.5 uM after 3 days by Western blot analysis; type: cell-based; settings: time 3.0 day
[6] = biological target: T2, von Hippel-Lindau disease tumor suppressor/Protein arginine N-methyltransferase 5; assay: PROTAC activity at PRMT5/VHL in human MDA-MB-468 cells assessed as maximal degradation measured after 72 hrs by Western blot analysis relative to control; type: cell-based
[7] = biological target: T1, von Hippel-Lindau disease tumor suppressor/Methylosome protein WDR77; assay: PROTAC activity at MEP50/VHL in human MDA-MB-453 cells assessed as degradation at 0.5 uM after 3 days by Western blot analysis; type: cell-based; settings: time 3.0 day
[8] = biological target: T2, von Hippel-Lindau disease tumor suppressor/Protein arginine N-methyltransferase 5; assay: PROTAC activity at PRMT5/VHL in human MDA-MB-468 cells assessed as degradation pretreated with MG132 proteasome inhibitor followed by treated at 5 uM of compound after 24 hrs by Western blot analysis; type: cell-based
[9] = biological target: T2, von Hippel-Lindau disease tumor suppressor/Protein arginine N-methyltransferase 5; assay: PROTAC activity at PRMT5/VHL in human MDA-MB-468 cells assessed as degradation pretreated with GSKi (EPZ015666) followed by treated at 5 uM of compound after 24 hrs by Western blot analysis; type: cell-based
[10] = biological target: T1, von Hippel-Lindau disease tumor suppressor/Methylosome protein WDR77; assay: PROTAC activity at MEP50/VHL in human MDA-MB-468 cells assessed as relative protein level at 0.5 uM measured after 24 hrs by Western blot analysis; type: cell-based
[11] = biological target: T1, von Hippel-Lindau disease tumor suppressor/Methylosome protein WDR77; assay: PROTAC activity at MEP50/VHL in VHL KO human MDA-MB-468 cells assessed as degradation at 0.5 uM of compound after 24 hrs by Western blot analysis; type: cell-based
[12] = biological target: T2, von Hippel-Lindau disease tumor suppressor/Protein arginine N-methyltransferase 5; assay: PROTAC activity at PRMT5/VHL in human MDA-MB-231 cells assessed as degradation at 5 uM after 3 days by Western blot analysis; type: cell-based; settings: time 3.0 day
MDA-MB-231 = assay: Growth inhibition of human MDA-MB-231 cells assessed as cell viability measured after 5 days by CCK-8 assay; type: functional, cell-based; settings: time 5.0 day
[13] = biological target: T2, von Hippel-Lindau disease tumor suppressor/Protein arginine N-methyltransferase 5; assay: PROTAC activity at PRMT5/VHL in human MCF-10A cells assessed as degradation at 0.5 to 5 uM after 3 days by Western blot analysis; type: cell-based; settings: dose 0.5-5 µM, time 3.0 day

T1 sequence (P40337 whole entry, looked up): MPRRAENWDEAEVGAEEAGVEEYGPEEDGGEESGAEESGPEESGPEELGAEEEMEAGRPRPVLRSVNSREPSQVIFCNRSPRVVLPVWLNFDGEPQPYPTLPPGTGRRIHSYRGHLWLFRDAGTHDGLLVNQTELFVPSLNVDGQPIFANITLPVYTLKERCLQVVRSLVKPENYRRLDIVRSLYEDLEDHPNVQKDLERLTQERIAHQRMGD
T1 sequence (Q9BQA1 whole entry, looked up): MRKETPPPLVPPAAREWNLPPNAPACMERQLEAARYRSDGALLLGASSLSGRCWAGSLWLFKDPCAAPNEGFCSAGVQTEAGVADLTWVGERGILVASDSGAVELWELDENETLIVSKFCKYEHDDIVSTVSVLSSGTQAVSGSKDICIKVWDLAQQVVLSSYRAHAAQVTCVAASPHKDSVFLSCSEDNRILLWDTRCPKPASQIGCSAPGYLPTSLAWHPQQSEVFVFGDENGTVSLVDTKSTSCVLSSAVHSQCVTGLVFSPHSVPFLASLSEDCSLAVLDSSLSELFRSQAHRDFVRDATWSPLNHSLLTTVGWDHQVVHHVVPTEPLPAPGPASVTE
T2 sequence (O14744 whole entry, looked up): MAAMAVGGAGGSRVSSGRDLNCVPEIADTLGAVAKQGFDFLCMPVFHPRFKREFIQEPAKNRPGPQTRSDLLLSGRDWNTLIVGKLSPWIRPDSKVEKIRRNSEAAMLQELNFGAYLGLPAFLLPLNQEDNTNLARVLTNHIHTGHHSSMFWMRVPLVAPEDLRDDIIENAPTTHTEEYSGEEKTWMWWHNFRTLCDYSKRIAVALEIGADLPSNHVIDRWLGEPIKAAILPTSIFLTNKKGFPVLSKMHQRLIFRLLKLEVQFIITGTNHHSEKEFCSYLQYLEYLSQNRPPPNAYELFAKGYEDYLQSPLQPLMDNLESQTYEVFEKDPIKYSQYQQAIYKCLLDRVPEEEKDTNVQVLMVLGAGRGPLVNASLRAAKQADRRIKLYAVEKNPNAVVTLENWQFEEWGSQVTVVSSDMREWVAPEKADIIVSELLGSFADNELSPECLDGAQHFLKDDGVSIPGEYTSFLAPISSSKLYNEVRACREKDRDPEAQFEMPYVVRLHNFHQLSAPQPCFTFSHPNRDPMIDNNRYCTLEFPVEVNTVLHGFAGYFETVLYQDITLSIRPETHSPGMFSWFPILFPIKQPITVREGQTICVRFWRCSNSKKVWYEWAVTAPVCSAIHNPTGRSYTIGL
T2 sequence (P40337 whole entry, looked up): as the sequence (P40337 whole entry, looked up) above

Cc1ncsc1-c1ccc([C@H](CC(=O)NCCOCCOCCOCCOCCOCCC(=O)N2CCC(Nc3cc(C(=O)NC[C@H](O)CN4CCc5ccccc5C4)ncn3)CC2)NC(=O)[C@@H]2C[C@@H](O)CN2C(=O)[C@@H](NC(=O)C2(F)CC2)C(C)(C)C)cc1
Activity (MCF-10A): 100%
Activity [1]: 100%
Activity [2]: Active
Activity [3]: Active
Activity [4]: Active
growth inhibition (GI) (HCC70): Active
Activity [5]: Active
Emax [6]: 86%
Activity [7]: Active
Activity [8]: inactive
Activity [9]: inactive
Activity [10]: Active
Activity [11]: Not active; Complete Rescue Not Observed - Due To Incomplete Vhl Ko
Activity [12]: Active
growth inhibition (GI) (MDA-MB-231): Active
Activity [13]: 100%
